The results in this text go back to paper PMC9966268, “Genotoxicity of Novel Pyrazolo[4,3-e]tetrazolo[1,5-b][1,2,4]triazine Sulfonamides in Normal and Cancer Cells In Vitro” (International Journal of Molecular Sciences, 2023).

Data set [1] has as its system PC-3. In words: Neutral comet assay. It counts as cell-based, human. The settings on record: human, 24 h. The method, then: The majority of the neutral comet assay steps were performed analogously to the alkaline version except for the electrophoresis step. In contrast to the alkaline comet assay, electrophoresis was performed in a buffer comprising 100 mM TRIS and 300 mM sodium acetate with the pH of the solution adjusted to 9.0 by glacial acetic acid, as described previously by Bukowski et al.. Electrophoresis was run at 12 V, 50 mA for 60 min. Cells were washed with distilled water twice, stained with DAPI, and analyzed as described for the alkaline comet assay.
(§1) […] This parameter provides a very clear picture of what the actual appearance of the comets was like. […] The data were presented with an interquartile range and minimal and maximal values using Graphpad Prism 7. Statistical analysis of comet assay results was performed using Statistica software. The Kruskal–Wallis test was used to show a statistically significant difference between groups. Multiple comparisons using mean ranks for all groups module of Statistica software were used. A p-value less than 0.05 was considered statistically significant. In all groups, N > 200.

Data set [2] relates to PC-3. In words: Alkaline comet assay. Format: cell-based, human. As to conditions: PC-3, alkaline, IC50 concentration, 24 h. The method, then: (§2) The alkaline version of the comet assay was performed according to Singh et al. (1988), with modifications. BxPC-3 and PC-3 cancer cells and normal human fibroblasts (WI-38) were seeded at a density of 1.2 × 10^5/mL onto 12-well plates. […] The experimental design included negative controls (cells treated with DMSO at 0.4% for 24 h at 37 °C). Cells were left for incubation for another 24 h (37 °C; 5% CO2). After exposure, they were transferred to Eppendorf tubes and centrifuged at 1400 rpm for 10 min at 4 °C. Afterward, the supernatant was removed, and the precipitate was diluted in PBS. The next steps were performed as previously described by Kontek and Nowicka.
(§3) After electrophoresis (conditions: 12 V, 300 mA, 25 min), slides were stained with 1 µg/mL of the intercalating agent 4′,6-diamidino-2-phenylindole (DAPI) and coverslipped. DNA damage was assessed with a fluorescence microscope at 360 nm using CellSens (Olympus) software. A total number of approximately 50 cells per slide was chosen for further analysis.
as §1

The test system of a further data set is BxPC-3. In words: Alkaline comet assay. Format: cell-based, human. The settings on record: BxPC-3, alkaline, IC50 concentration, 24 h. As to the method: as §2, §3, §1
The next data set is described as follows: Alamar blue assay. It counts as cell-based. As to conditions: human, PC-3 cells, PC-3, 3 µM. The method, then:
Alamar blue works as a non-toxic and membrane-permeable redox indicator that is often used to assess the metabolic activity of cells. Over the past 50 years, the alamar blue reagent has been used to measure cell viability and cytotoxicity in a variety of cell types. In this study, alamar blue (BioRAD) was used to assess cell viability before the performance of the neutral comet assay. Nunc microtiter, flat-bottomed 96-well plates were seeded at a density of approximately 1 × 10^4 cells per 100 µL medium per well. Following the given incubation period in controlled conditions (37 °C; 5% CO2), cells were exposed to 11 different concentrations of tested compounds in DMSO (range 0.05–3 µM) in a volume of 100 µL medium per well. The final solvent concentration was <0.5% v/v. The experimental design included negative controls and blanks (wells without cells).
Following a 24 h incubation period, 20 µL of alamar blue was added to each well of the experimental plate. Cells were incubated in a humidified atmosphere for 4 h (37 °C; 5% CO2). The absorbance reading was performed at 570 and 600 nm using a spectrophotometer (microplate reader Power Wave XS BioTek Instruments, Inc., USA). The experiments were performed in triplicate.
The percentage difference between treated and control cells was calculated using the formula provided by the producer (BioRad). (1) Percentage difference between treated and control cells=O2×A1 −O1×A2 /O2×P1−O1×P2×100
A general note: Resazurin is reduced to fluorescent resorufin, in cell work by metabolically active cells.

By viability is commonly meant a read-out of living cells in per cent, often relative to untreated cells. As for `Cc1nn(-c2ccc(S(=O)(=O)NCCN3CCOCC3)cc2)c2nn3nnnc3nc12` [MM134], in the data set on PC-3 [1], the “mean tail DNA % (double-strand breaks)” value stood at 5.72% and the “median tail DNA % (double-strand breaks)” value turned out to be 4.09%. Also, in the data set on PC-3 [2], the “mean tail DNA %” value is 7.37% and the “median tail DNA %” value is 1.03%. For the same compound, in the data set on BxPC-3, the “mean tail DNA %” value stood at 10.9% and the “median tail DNA %” value was found to be 2.5%. Moreover, the viability at 24 h, 3 µM in the data set “Alamar blue assay” was found to be 55.8 ± 5.27%.
